Data published in ChEMBL document CHEMBL4138170, “Synthesis and biological evaluation of novel alkylated polyamine analogues as potential anticancer agents” (Eur J Med Chem, 2018).
Blank lines part the entries; values can stand above or below the compound they belong to. Calls of active or inactive are those of the source. The rule behind the calls is not given here.

Columns and labels:
[1] = system: HCT-116; assay: Antiproliferative activity against human HCT116 cells after 48 hrs by MTT assay; assay type: functional, cell-based; conditions: HCT-116, 48 h
[2] = system: SMMC-7721; assay: Antiproliferative activity against human SMMC7721 cells after 48 hrs by MTT assay; assay type: functional, cell-based; conditions: SMMC-7721, 48 h
[3] = system: HepG2; assay: Antiproliferative activity against human HepG2 cells after 48 hrs by MTT assay; assay type: functional, cell-based; conditions: HepG2, 48 h
[4] = system: K562; assay: Antiproliferative activity against human K562 cells after 48 hrs by MTT assay; assay type: functional, cell-based; conditions: K562, 48 h
[5] = system: HepG2; assay: Downregulation of beta-catenin protein expression in human HepG2 cells after 24 to 48 hrs by Western blot analysis; assay type: functional, cell-based
[6] = system: SMMC-7721; assay: Induction of autophagy in human SMMC7721 cells assessed as downregulation of p62 expression level up to 10 uM after 24 to 48 hrs by Western blot analysis; assay type: functional, cell-based
[7] = system: HepG2; assay: Antimigratory activity in human HepG2 cells incubated for 24 to 48 hrs in presence of autophagy inhibitor 3-MA by cell wound scratch assay; assay type: functional, cell-based
[8] = system: Mus musculus; assay: Toxicity in Swiss mouse xenografted with mouse H22 cells assessed as effect on liver weight at 0.75 mg/kg/day, iv administered via tail vein for 7 days; assay type: organism-based; conditions: in vivo, 168 h
[9] = system: MCF7; assay: Antiproliferative activity against human MCF7 cells after 48 hrs by MTT assay; assay type: functional, cell-based; conditions: MCF7, 48 h
[10] = system: H22; assay: Antitumor activity against mouse H22 cells implanted in Swiss mouse assessed as tumor growth inhibition at 0.75 mg/kg/day, iv administered via tail vein for 7 days relative to control; assay type: functional; conditions: 168 h, read-out: TGI
[11] = system: Mus musculus; assay: Toxicity in Swiss mouse implanted with mouse H22 cells assessed as effect on heart weight at 0.75 mg/kg/day, iv administered via tail vein for 7 days; assay type: organism-based; conditions: in vivo, 168 h
[12] = Stability of the compound after 48 hrs by 1H NMR spectroscopic method; assay type: physicochemical
[13] = system: SMMC-7721; assay: Induction of autophagy in human SMMC7721 cells assessed as increase in LC3-2 levels after 24 to 48 hrs by Western blot analysis; assay type: functional, cell-based
[14] = system: SMMC-7721; assay: Induction of autophagy in human SMMC7721 cells assessed as upregulation of ATG7 expression level up to 10 uM after 24 to 48 hrs by Western blot analysis; assay type: functional, cell-based
[15] = system: SMMC-7721; assay: Induction of autophagy in human SMMC7721 cells assessed as increase in LC3-2 levels in presence of antioxidant NAC by Western blot analysis; assay type: functional, cell-based
[16] = system: HepG2; assay: Induction of autophagy in human HepG2 cells up to 10 uM after 48 hrs by MDC staining-based flow cytometry; assay type: functional, cell-based
[17] = system: HepG2; assay: Induction of autophagy in human HepG2 cells assessed as increase in LC3-2 levels in presence of antioxidant NAC by Western blot analysis; assay type: functional, cell-based
[18] = system: HepG2; assay: Downregulation of MMP9 protein expression in human HepG2 cells after 24 to 48 hrs by Western blot analysis; assay type: functional, cell-based
[19] = system: SMMC-7721; assay: Downregulation of beta-catenin protein expression in human SMMC7721 cells after 24 to 48 hrs by Western blot analysis; assay type: functional, cell-based
[20] = system: CT26; assay: Antimetastatic activity against mouse CT26 cells implanted in BALB/c mouse assessed as reduction in lung metastatic nodules at 0.75 mg/kg, iv administered via tail vein for 9 days; assay type: functional, organism-based
[21] = system: HepG2; assay: Antiproliferative activity against human HepG2 cells after 48 hrs in presence of antioxidant NAC by MTT assay; assay type: functional, cell-based
[22] = system: MDA-MB-231; assay: Antiproliferative activity against human MDA-MB-231 cells after 48 hrs by MTT assay; assay type: functional, cell-based; conditions: MDA-MB-231, 48 h
[23] = system: Mus musculus; assay: Toxicity in Swiss mouse implanted with mouse H22 cells assessed as effect on body weight at 0.75 mg/kg/day, iv administered via tail vein for 7 days; assay type: organism-based; conditions: in vivo, 168 h
[24] = system: Mus musculus; assay: Toxicity in Swiss mouse xenografted with mouse H22 cells assessed as effect on lung weight at 0.75 mg/kg/day, iv administered via tail vein for 7 days; assay type: organism-based; conditions: in vivo, 168 h
[25] = system: SMMC-7721; assay: Induction of autophagy in human SMMC7721 cells assessed as increase in Beclin 1 levels at 2.5 to 7.5 um after 24 to 48 hrs by Western blot analysis; assay type: functional, cell-based
[26] = system: HepG2; assay: Induction of ROS generation in human HepG2 cells after 24 hrs by H2DCFDA staining-based HCS analysis; assay type: functional, cell-based
[27] = system: SMMC-7721; assay: Downregulation of MMP9 protein expression in human SMMC7721 cells after 24 to 48 hrs by Western blot analysis; assay type: functional, cell-based
[28] = Stability of the compound after 24 hrs by 1H NMR spectroscopic method; assay type: physicochemical
[29] = system: SMMC-7721; assay: Induction of autophagy in human SMMC7721 cells assessed as decrease in p62 levels in presence of antioxidant NAC by Western blot analysis; assay type: functional, cell-based
[30] = system: SMMC-7721; assay: Induction of autophagy in human SMMC7721 cells assessed as upregulation of ATG5 expression level up to 10 uM after 24 to 48 hrs by Western blot analysis; assay type: functional, cell-based
[31] = system: HepG2; assay: Induction of autophagy in human HepG2 cells assessed as downregulation of p62 expression level up to 10 uM after 24 to 48 hrs by Western blot analysis; assay type: functional, cell-based
[32] = system: SMMC-7721; assay: Induction of autophagy in human SMMC7721 cells up to 10 uM after 48 hrs by MDC staining-based flow cytometry; assay type: functional, cell-based
[33] = system: HepG2; assay: Inhibition of cell migration in human HepG2 cells at 2.5 to 7.5 uM incubated for 24 to 48 hrs by cell wound scratch assay; assay type: functional, cell-based
[34] = system: SMMC-7721; assay: Antiproliferative activity against human SMMC7721 cells after 48 hrs in presence of antioxidant NAC by MTT assay; assay type: functional, cell-based
[35] = system: HepG2; assay: Induction of autophagy in human HepG2 cells assessed as increase in LC3-2 levels after 24 to 48 hrs by Western blot analysis; assay type: functional, cell-based
[36] = system: H22; assay: Antitumor activity against mouse H22 cells implanted in Swiss mouse assessed as inhibition of lung metastasis at 0.75 mg/kg/day, iv administered via tail vein for 7 days relative to control; assay type: functional; conditions: 168 h
[37] = system: CT26; assay: Antiproliferative activity against mouse CT26 cells after 48 hrs by MTT assay; assay type: functional, cell-based; conditions: CT26, 48 h
[38] = system: HepG2; assay: Induction of autophagy in human HepG2 cells assessed as decrease in p62 levels in presence of antioxidant NAC by Western blot analysis; assay type: functional, cell-based
[39] = system: HepG2; assay: Induction of autophagy in human HepG2 cells assessed as upregulation of ATG7 expression level up to 10 uM after 24 to 48 hrs by Western blot analysis; assay type: functional, cell-based
[40] = system: HT-29; assay: Antiproliferative activity against human HT-29 cells after 48 hrs by MTT assay; assay type: functional, cell-based; conditions: HT-29, 48 h
[41] = system: Mus musculus; assay: Toxicity in Swiss mouse implanted with mouse H22 cells assessed as effect on quality of life at 0.75 mg/kg/day, iv administered via tail vein for 7 days; assay type: organism-based; conditions: in vivo, 168 h
[42] = system: Mus musculus; assay: Toxicity in Swiss mouse xenografted with mouse H22 cells assessed as effect on kidney weight at 0.75 mg/kg/day, iv administered via tail vein for 7 days; assay type: organism-based; conditions: in vivo, 168 h
[43] = system: SMMC-7721; assay: Induction of ROS generation in human SMMC7721 cells at 2.5 to 10 uM after 24 hrs by H2DCFDA staining-based flow cytometry; assay type: functional, cell-based
[44] = system: SMMC-7721; assay: Induction of ROS generation in human SMMC7721 cells at 10 uM after 24 hrs in presence of antioxidant NAC by H2DCFDA staining-based flow cytometry; assay type: functional, cell-based
[45] = system: SMMC-7721; assay: Induction of autophagy in human SMMC7721 cells up to 10 uM after 48 hrs in presence of antioxidant NAC by MDC staining-based flow cytometry; assay type: functional, cell-based
[46] = system: H22; assay: Antiproliferative activity against mouse H22 cells after 48 hrs by MTT assay; assay type: functional, cell-based; conditions: H22, 48 h
[47] = system: HepG2; assay: Induction of autophagy in human HepG2 cells assessed as upregulation of ATG5 expression level up to 10 uM after 24 to 48 hrs by Western blot analysis; assay type: functional, cell-based
[48] = system: SMMC-7721; assay: Inhibition of cell migration in human SMMC7721 cells at 2.5 to 7.5 uM incubated for 24 to 48 hrs by cell wound scratch assay; assay type: functional, cell-based
[49] = system: HepG2; assay: Induction of ROS generation in human HepG2 cells at 10 uM after 24 hrs in presence of antioxidant NAC by H2DCFDA staining-based flow cytometry; assay type: functional, cell-based
[50] = system: HepG2; assay: Induction of ROS generation in human HepG2 cells at 2.5 to 10 uM after 24 hrs by H2DCFDA staining-based flow cytometry; assay type: functional, cell-based
[51] = system: HepG2; assay: Induction of autophagy in human HepG2 cells up to 10 uM after 48 hrs in presence of antioxidant NAC by MDC staining-based flow cytometry; assay type: functional, cell-based
[52] = system: Mus musculus; assay: Toxicity in Swiss mouse xenografted with mouse H22 cells assessed as effect on spleen weight at 0.75 mg/kg/day, iv administered via tail vein for 7 days; assay type: organism-based; conditions: in vivo, 168 h
[53] = system: SMMC-7721; assay: Induction of ROS generation in human SMMC7721 cells after 24 hrs by H2DCFDA staining-based HCS analysis; assay type: functional, cell-based
[54] = system: HepG2; assay: Induction of autophagy in human HepG2 cells assessed as increase in Beclin 1 levels at 2.5 to 7.5 um after 24 to 48 hrs by Western blot analysis; assay type: functional, cell-based
[55] = system: H22; assay: Antitumor activity against mouse H22 cells implanted in Swiss mouse assessed as inhibition of lung metastasis at 5 mg/kg/day, iv administered via tail vein for 7 days relative to control; assay type: functional; conditions: 168 h
[56] = system: H22; assay: Antitumor activity against mouse H22 cells implanted in Swiss mouse assessed as tumor growth inhibition at 5 mg/kg/day, iv administered via tail vein for 7 days relative to control; assay type: functional; conditions: 168 h, read-out: TGI

Structure (SMILES): CCNCCCNCCCCNCCCN1C(=O)c2cccc3cccc(c23)C1=O
IC50 [1]: 5.94 µM
IC50 [2]: 11 µM
IC50 [3]: 5.22 µM
IC50 [4]: 14.8 µM

Structure (SMILES): CCCNCCCNCCCNCCCN1C(=O)c2cccc3cccc(c23)C1=O
IC50 [1]: 7.96 µM
IC50 [2]: 11.2 µM
IC50 [3]: 9.98 µM
IC50 [4]: 10.2 µM

Structure (SMILES): CN(C)CCN1C(=O)c2cccc3cc(N)cc(c23)C1=O [AMONAFIDE]
inhibition in vivo at 5 mg/kg/day [55]: 41.2%
IC50 [1]: 6.86 µM
inhibition in vivo at 5 mg/kg/day [56]: 45.1%
IC50 [4]: 10.1 µM

Structure (SMILES): O=C1c2cccc3cccc(c23)C(=O)N1CCCNCCCCNCCCNC1CC1
IC50 [1]: 7.21 µM
IC50 [2]: 6.38 µM
IC50 [3]: 6.59 µM
IC50 [4]: 8.09 µM

Now those with a lower IC50 [1], led by results:

IC50 [1]: 5.2 µM
IC50 [2]: 6.6 µM
IC50 [3]: 7.66 µM
IC50 [4]: 7.71 µM
Structure (SMILES): CCCNCCCNCCCCNCCCN1C(=O)c2cccc3cccc(c23)C1=O

IC50 [9]: 7.47 µM
Stability [12]: Stable
IC50 [1]: 5.28 µM
IC50 [2]: 5.13 µM
IC50 [22]: 5.14 µM
Stability [28]: Stable
IC50 [37]: 9.04 µM
IC50 [40]: 8.18 µM
IC50 [3]: 6.34 µM
IC50 [4]: 4.67 µM
Structure (SMILES): Cl.Cl.Cl.O=C1c2cccc3cccc(c23)C(=O)N1CCCNCCCNCCCNC1CC1
Activity [5]: Dose-dependent effect
Activity [6]: Active
Activity [7]: Active
Activity [8]: Non-Toxic
inhibition in vivo at 0.75 mg/kg/day [10]: 68.3%
Activity [11]: Non-Toxic
Activity [13]: Dose-dependent effect
Activity [14]: Active
Activity [15]: inactive
Activity [16]: Active
Activity [17]: inactive
Activity [18]: Dose-dependent effect
Activity [19]: Dose-dependent effect
inhibition [20]: Active
Activity [21]: inactive
Activity [23]: Non-Toxic
Activity [24]: Non-Toxic
Activity [25]: Active
Activity [26]: Dose-dependent effect
Activity [27]: Dose-dependent effect
Activity [29]: inactive
Activity [30]: Active
Activity [31]: Active
Activity [32]: Active
inhibition [33]: Active
Activity [34]: inactive
Activity [35]: Dose-dependent effect
inhibition in vivo at 0.75 mg/kg/day [36]: 54.4%
Activity [38]: inactive
Activity [39]: Active
Activity [41]: Non-Toxic
Activity [42]: Non-Toxic
Activity [43]: Active
Activity [44]: inactive
Activity [45]: inactive
IC50 [46]: 7.49 µM
Activity [47]: Active
inhibition [48]: Active
Activity [49]: inactive
Activity [50]: Active
Activity [51]: inactive
Activity [52]: Non-Toxic
Activity [53]: Dose-dependent effect
Activity [54]: Active
